Assay [1] has as its system TPA-induced inflammatory cell infiltration into the dermis. Kind of assay: Inhibition of TPA-induced inflammatory cell infiltration into the dermis of mice. Format: in vivo, BALB/c mice. The note with it: for Synergistic factor: IC50 without auranofin divided by IC50 with auranofin (0.2%); for Emax: read-out: Emax (% inhibition); for Relative potency: hydrocortisone acetate = 1.0; for Potency for inhibition of TPA-induced inflammatory cell infiltration (in words): ranking in text. On the procedure:
(§1) The mice were housed in stainless steel cages, 6 mice per cage under normal laboratory conditions (room temperature at about 22° C.) at least 7 days before the experiments for acclimatization. Food and water were allowed ad libitum throughout the experiment period. The backs of the mice were shaved with an electric clipper two days before each treatment and only those mice showing no hair regrowth were used (i.e., the mice in the resting phase of the hair growth cycle were selected). During treatment, the mice were held with their tails and put on top of the cage so that they grasped the cage and rested there. The solutions were applied to an area approximately 2 cm×2 cm on the shaved back of the mice by using a “Pipetman” to apply the solution. If auranofin ointment or ointment base was applied, the amount was standardized by using a microspatula which was crimped at one end, the ointment was then put into the ridge and the excess removed by means of another microspatula and applied sparingly twice a day. After a fixed time, the mice were killed routinely by cervical dislocation between 9 a.m. and 11 a.m. to avoid variations due to circadian rhythms, and an area (1 cm×1 cm) was excised from the centre of the treated area by scalpel and scissors. The rest of the tissues were disposed by combustion. The tissues were then fixed, embedded, sectioned and stained.
Infiltration of inflammatory cells was determined by the same image analysis system using the section taken from the block of mouse skin embedded in paraffin wax or Spurr's resin and stained with haematoxylin and eosin or toluidine blue respectively. For each section, 10 fields, unless otherwise stated, were chosen randomly and the cell density per mm^2 of field determined. The average value for the 10 fields was obtained and entered as one value for each mouse. The mean and SEM for the six mice in each treatment group were calculated.
The measurement of the inflammatory cell infiltration included the background values which included other materials in the dermis stained in the same way.
(§2) The percent inhibition of drug on TPA-induced skin responses (i.e., epidermal hyperplasia, inflammatory cell infiltration and skin-fold thickness) was calculated by using the following formula: [formula]
(§3) This provides estimates of (a) the potency, (b) the efficacy or maximum effect (Emax) and the slope of the log concentration-response curve by using Hill coefficient (γ). The Hill Equation may be expressed as follows: [formula] where IC50 is the drug concentration producing 50% of the maximal response and Emax refers to the maximal effect produced by the drug and is also termed efficacy. Efficacy is the measurement of the intrinsic ability of a drug to initiate a response once it occupies receptor sites. […] The Hill coefficient (γ) measures the slope of the dose-effect curve which can be markedly influenced by the shape of the curve that describes the binding of the drug to the receptor. For many drugs, y lies between 0.6 and 1.5. […] On the other hand, when γ is less than 1, with a shallow hyperbolic concentration effect relationship, the activity occurs over a wide range of drug levels.
(§4) In the present study, concentration-response curves were obtained for a series of corticosteroids. In these experiments, curve fitting was accomplished using a computer programme called “The Scientist” (MicroMath Scientific Software, Salt Lake City, Utah, USA.) in which the parameters, Emax, IC50 and Hill coefficient (γ) for each steroids were estimated by using non-linear regression and least square fits.
Mice were divided into treatment groups. TPA and corticosteroids were premixed to the concentrations required and applied to the backs of mice immediately.

Assay [2] concerns TPA-induced epidermal hyperplasia. Kind of assay: Inhibition of TPA-induced epidermal hyperplasia (epidermal thickness) on back skin of mice. The format is in vivo, BALB/c mice. The note with it: for Synergistic factor: IC50 without auranofin divided by IC50 with auranofin (0.2%); for Emax: read-out: Emax (% inhibition); for Synergism with auranofin, epidermal hyperplasia (in words): auranofin (0.2%) co-administered; for Relative potency: hydrocortisone acetate = 1.0; for Percent increase in the apparent potency of the steroid: in presence of auranofin (0.2%); for Potency for inhibition of TPA-induced epidermal hyperplasia (in words): ranking in text. The method, then:
as §1
Epidermal thickness was determined by image analysis. This image analysis system was a minicomputer (Tracor Northern TN8500) attached to a light microscope (Zeiss Axioplan) and a camcorder (Sony DXC-3000P). Sections were taken from each tissue block and 20 measurements were taken at fixed intervals from each section. The average value for the 20 measurements was obtained and entered as one value for each mouse. The mean and SEM for the six mice in each treatment group were calculated.
as §2, §3, §4
Mice were divided into treatment groups. TPA and corticosteroids were premixed to the concentrations required and applied to the backs of mice immediately. For those steroids not very soluble in acetone (i.e., betamethasone, dexamethasone, hydrocortisone and hydrocortisone acetate), the drugs were dissolved in 100 μL dimethylformamide before further dilution with acetone. The efficacy of corticosteroids in inhibiting epidermal hyperplasia, inflammatory cell infiltration and skin-fold thickness was assessed as described previously. Concentration-response curves were determined after computer-fitting of data.

Setting [3] is: Mus musculus, from Hill equation, concentration that produced 50% of Emax, read-out: IC50 for inhibition of inflammatory cell infiltration in the dermis (M × 10^−4).
The mark [4] stands for this setting: Mus musculus, read from concentration-response curve, concentration that inhibited 50% of the TPA effect, read-out: IC50 for inhibition of inflammatory cell infiltration in the dermis (M × 10^−4).
Where [5] appears, read: Mus musculus, topical, Hill equation fit, means ± SD, steroid premixed with TPA, topical, read-out: IC50 (M × 10^−4).
Where [6] appears, read: Mus musculus, with auranofin (0.2%), from computer fitted graph, means ± SD, read-out: Apparent IC50 (M × 10^−4) with auranofin.
[7] abbreviates: Mus musculus, without auranofin, from computer fitted graph, means ± SD, read-out: Apparent IC50 (M × 10^−4) without auranofin.
Where [8] appears, read: Mus musculus, Hill equation fit, means ± SD, steroid premixed with TPA, topical.
[9] abbreviates: Mus musculus, from Hill equation, concentration that produced 50% of Emax, read-out: IC50 for inhibition of epidermal thickening (M × 10^−4).
The mark [10] stands for this setting: Mus musculus, read from concentration-response curve, concentration that inhibited 50% of the TPA effect, read-out: IC50 for inhibition of epidermal thickening (M × 10^−4).
Where [11] appears, read: Hill equation fit, means ± SD, steroid premixed with TPA, topical.
Setting [12] is: Hill equation fit, means ± SD, steroid premixed with TPA, topical, read-out: IC50 (M × 10^−4).

The structures appear in SMILES notation. Read-outs that look alike come from different tables or passages of the source.

A word on the Emax: it is the greatest response seen or fitted, relative to the assay's reference. `CC1(C)O[C@@H]2C[C@H]3[C@@H]4C[C@H](F)C5=CC(=O)C=C[C@]5(C)[C@@]4(F)[C@@H](O)C[C@]3(C)[C@]2(C(=O)CO)O1` [Fluocinolone acetonide, fluocinolone acetonide]: the Synergistic factor in assay [1] is 2.27; in assay [2] it was 13.13. Further, the IC50 was found to be 16 µM in assay [1] (setting [3]); 25 µM in assay [1] (setting [4]); 16 ± 2 µM in assay [1] (setting [5]); 11 ± 1.3 µM in assay [1] (setting [6]); 25 ± 0.2 µM in assay [1] (setting [7]); 39 µM in assay [2] (setting [9]). For the same compound, the IC50 in assay [2] (setting [10]) came to 21 µM; in assay [2] (setting [5]), 39 ± 14 µM; in assay [2] (setting [6]), 1.6 ± 0.2 µM; in assay [2] (setting [7]) it was 21 ± 14 µM. Moreover, the Emax was found to be 79.6 ± 2.41% in assay [1] (setting [8]) and 89.6 ± 6.93% in assay [2] (setting [8]). In addition, the Relative potency in assay [1] (from IC50 read from curve) is 440; in assay [2] (from Hill-equation IC50), 94.03; in assay [2] (from IC50 read from curve), 333.33. Further, the “Potency for inhibition of TPA-induced inflammatory cell infiltration (in words)” value in assay [1] is “most potent agent”; in assay [1] (listed as fluocinolone acetonide) it was “strong to very strong anti-inflammatory effect”. In addition, the “Synergism with auranofin, epidermal hyperplasia (in words)” value in assay [2] is “massive synergism”. Further, the “Percent increase in the apparent potency of the steroid” value in assay [2] is given as 1,300%. Besides, the “Potency for inhibition of TPA-induced epidermal hyperplasia (in words)” value in assay [2] is given as “strong to very strong potencies”.
For `C[C@@H]1C[C@H]2[C@@H]3C[C@H](F)C4=CC(=O)C=C[C@]4(C)[C@H]3[C@@H](O)C[C@]2(C)[C@H]1C(=O)COC(=O)C(C)(C)C` [Fluocortolone 21-pivalate], the entries for the “Emax (% inhibition)” value in assay [1] (setting [11]) and in assay [2] (setting [11]) were 97.91 ± 12.16 % inhibition and 85.18 ± 9.51 % inhibition, respectively. In addition, the IC50 amounted to 110 ± 40 µM in assay [1] (setting [12]); 110 µM in assay [1] (from Hill equation, concentration that produced 50% of Emax, read-out: IC50 for inhibition of inflammatory cell infiltration in the dermis (M × 10^−4)); 110 µM in assay [1] (read from concentration-response curve, concentration that inhibited 50% of the TPA effect, read-out: IC50 for inhibition of inflammatory cell infiltration in the dermis (M × 10^−4)); 40 ± 15 µM in assay [2] (setting [12]); 40 µM in assay [2] (from Hill equation, concentration that produced 50% of Emax, read-out: IC50 for inhibition of epidermal thickening (M × 10^−4)); 60 µM in assay [2] (read from concentration-response curve, concentration that inhibited 50% of the TPA effect, read-out: IC50 for inhibition of epidermal thickening (M × 10^−4)). In addition, the Relative potency in assay [1] (from Hill-equation IC50) worked out at 70.30; in assay [1] (from IC50 read from curve) it was 100.0; in assay [2] (from Hill-equation IC50), 91.68; in assay [2] (from IC50 read from curve) it was 116.67. In addition, the “Potency for inhibition of TPA-induced inflammatory cell infiltration (in words)” value in assay [1] was “medium to strong potencies”. For the same compound, in assay [2], the “Potency for inhibition of TPA-induced epidermal hyperplasia (in words)” value is “medium to strong potencies”.
Take `CC1(C)O[C@@H]2C[C@H]3[C@@H]4CCC5=CC(=O)CC[C@]5(C)[C@@]4(F)[C@@H](O)C[C@]3(C)[C@]2(C(=O)CCl)O1` [Halcinonide]: the IC50 was 31 µM in assay [1] (setting [3]); 60 µM in assay [1] (setting [4]); 31 ± 5 µM in assay [1] (setting [5]); 97 µM in assay [2] (setting [9]); 110 µM in assay [2] (setting [10]); 97 ± 13 µM in assay [2] (setting [5]). For the same compound, the Emax was found to be 90.3 ± 6.29% in assay [1] (setting [8]) and 92.5 ± 2.98% in assay [2] (setting [8]). Further, the Relative potency came out at 249.45 in assay [1] (from Hill-equation IC50), 183.33 in assay [1] (from IC50 read from curve), 37.80 in assay [2] (from Hill-equation IC50) and 63.64 in assay [2] (from IC50 read from curve). Moreover, the “Potency for inhibition of TPA-induced inflammatory cell infiltration (in words)” value in assay [1] is “medium to strong potencies”. The “Potency for inhibition of TPA-induced epidermal hyperplasia (in words)” value in assay [2] is “medium to strong potencies”.
Regarding `CC(=O)OCC(=O)[C@@]1(O)CC[C@H]2[C@@H]3CCC4=CC(=O)CC[C@]4(C)[C@H]3[C@@H](O)C[C@@]21C` [Hydrocortisone acetate, hydrocortisone acetate], the IC50 is 7730 µM in assay [1] (setting [3]); 11000 µM in assay [1] (setting [4]); 7730 ± 1380 µM in assay [1] (setting [5]); 3670 µM in assay [2] (setting [9]); 7000 µM in assay [2] (setting [10]); 3670 ± 1200 µM in assay [2] (setting [5]). Also, the maximal response (Emax) in assay [1] (setting [8]) was determined as 79.4%; in assay [2] (setting [8]), 79.6 ± 7.62%. The Relative potency in assay [1] (from Hill-equation IC50), in assay [1] (from IC50 read from curve), in assay [2] (from Hill-equation IC50) and in assay [2] (from IC50 read from curve) was 1.0 in each case. Further, the “Potency for inhibition of TPA-induced inflammatory cell infiltration (in words)” value in assay [1] is “low to medium potencies”. For the same compound, the “Potency for inhibition of TPA-induced epidermal hyperplasia (in words)” value in assay [2] is reported as “low to medium potencies”.
`C[C@]12CCC(=O)C=C1CC[C@@H]1[C@@H]2[C@@H](O)C[C@@]2(C)[C@H]1CC[C@]2(O)C(=O)CO` [Hydrocortisone, hydrocortisone]: the Synergistic factor in assay [1] turned out to be 1.94; in assay [2], 2.05. Also, the IC50 in assay [1] (setting [3]) came to 6150 µM; in assay [1] (setting [4]), 6000 µM; in assay [1] (setting [5]) it was 6150 ± 966 µM; in assay [1] (setting [6]) it was 3100 ± 412 µM; in assay [1] (setting [7]) it was 6000 ± 966 µM; in assay [2] (setting [9]) it was 4620 µM. In addition, the IC50 in assay [2] (setting [10]) amounted to 4510 µM; in assay [2] (setting [5]) it was 4620 ± 1320 µM; in assay [2] (setting [6]), 2200 ± 1120 µM; in assay [2] (setting [7]), 4500 ± 1320 µM. Further, the Emax was 100% in assay [1] (setting [8]) and 99 ± 9.54% in assay [2] (setting [8]). The Relative potency came out at 1.26 in assay [1] (from Hill-equation IC50), 1.83 in assay [1] (from IC50 read from curve), 0.79 in assay [2] (from Hill-equation IC50) and 1.55 in assay [2] (from IC50 read from curve). The “Potency for inhibition of TPA-induced inflammatory cell infiltration (in words)” value in assay [1] was “low to medium potencies”. Besides, the “Synergism with auranofin, epidermal hyperplasia (in words)” value in assay [2] was “minor degree of synergism”. In assay [2], the “Percent increase in the apparent potency of the steroid” value is 100%. Besides, the “Potency for inhibition of TPA-induced epidermal hyperplasia (in words)” value in assay [2] was “low to medium potencies”.

Source of the values: patent publication US20050267204A1, “Synergistic gold-containing compositions” (MEDICAL INNOVATIONS LIMITED, priority 1996, published 2005).
